According to US6579556B2, “Ambient stable beverage” (Lipton, division of Conopco, Inc., priority 2000, dated 2003):
Values after ≈ are worked out from the molar mass of the structure shown. Read-outs that look alike come from different tables or passages of the source.

Assays:
Format in all cases: cell-based
[1] = tested on: yeast Saccharomyces cerevisiae X2180-1B; assay: Ready to Drink tea experiments, yeast growth after heat + pasteurisation adjunct; conditions: 0-200 ppm, OD 600 nm at 14 days; for effect of heat+pasteurisation adjunct on yeast growth: Ready to Drink tea 0.14% tea pH 3.4, held at temperature 2 minutes; for effect of pasteurisation adjunct at low temperature on yeast growth: Ready to Drink tea 0.14% tea pH 3.4, low temperature
Experimental: Rows of 30 ml tubes containing 10 ml RTD tea, pH 3.4, were equilibrated at the required temperature for 7 minutes in a water bath, before inoculation with 10^4 cells/ml of the yeast Saccharomyces cerevisiae […]-1B. Tubes were held at temperature for 2 minutes before being cooled rapidly in cold water for 5 minutes. Tubes were then incubated for 14 days at 25° C. to allow surviving yeasts to grow out. At 14 days growth was measured by optical density at 600 nm in x11 diluted samples. […] Rows of 30 ml tubes containing 10 ml RTD tea, pH 3.4, were equilibrated at the required temperature for 7 minutes in a water bath, before inoculation with 10^4 cells/ml of the yeast Saccharomyces cerevisiae […]-1B. Tubes were held at temperature for 2 minutes before being cooled rapidly in cold water for 5 minutes. Tubes were then incubated for 14 days at 25° C. to allow surviving yeasts to grow out. At 14 days growth was measured by optical density at 600 nm in x11 diluted samples. […] Rows of 30 ml tubes containing 10 ml RTD tea, pH 3.4, were equilibrated at the required temperature for 7 minutes in a water bath, before inoculation with 10^4 cells/ml of the yeast Saccharomyces cerevisiae […]-1B. Tubes were held at temperature for 2 minutes before being cooled rapidly in cold water for 5 minutes. Tubes were then incubated for 14 days at 25° C. to allow surviving yeasts to grow out. At 14 days growth was measured by optical density at 600 nm in x11 diluted samples. […] Rows of 30 ml tubes containing 10 ml RTD tea, pH 3.4, were equilibrated at the required temperature for 7 minutes in a water bath, before inoculation with 10^4 cells/ml of the yeast Saccharomyces cerevisiae […]-1B. Tubes were held at temperature for 2 minutes before being cooled rapidly in cold water for 5 minutes. Tubes were then incubated for 14 days at 25° C. to allow surviving yeasts to grow out. At 14 days growth was measured by optical density at 600 nm in x11 diluted samples. […] Rows of 30 ml tubes containing 10 ml RTD tea, pH 3.4, were equilibrated at the required temperature for 7 minutes in a water bath, before inoculation with 10^4 cells/ml of the yeast Saccharomyces cerevisiae […]-1B. Tubes were held at temperature for 2 minutes before being cooled rapidly in cold water for 5 minutes. Tubes were then incubated for 14 days at 25° C. to allow surviving yeasts to grow out. At 14 days growth was measured by optical density at 600 nm in x11 diluted samples. […] Rows of 30 ml tubes containing 10 ml RTD tea, pH 3.4, were equilibrated at the required temperature for 7 minutes in a water bath, before inoculation with 10^4 cells/ml of the yeast Saccharomyces cerevisiae […]-1B. Tubes were held at temperature for 2 minutes before being cooled rapidly in cold water for 5 minutes. Tubes were then incubated for 14 days at 25° C. to allow surviving yeasts to grow out. At 14 days growth was measured by optical density at 600 nm in x11 diluted samples. […] Rows of 30 ml tubes containing 10 ml RTD tea, pH 3.4, were equilibrated at the required temperature for 7 minutes in a water bath, before inoculation with 10^4 cells/ml of the yeast Saccharomyces cerevisiae […]-1B. Tubes were held at temperature for 2 minutes before being cooled rapidly in cold water for 5 minutes. Tubes were then incubated for 14 days at 25° C. to allow surviving yeasts to grow out. At 14 days growth was measured by optical density at 600 nm in x11 diluted samples. […] Rows of 30 ml tubes containing 10 ml RTD tea, pH 3.4, were equilibrated at the required temperature for 7 minutes in a water bath, before inoculation with 10^4 cells/ml of the yeast Saccharomyces cerevisiae […]-1B. Tubes were held at temperature for 2 minutes before being cooled rapidly in cold water for 5 minutes. Tubes were then incubated for 14 days at 25° C. to allow surviving yeasts to grow out. At 14 days growth was measured by optical density at […] in x11 diluted samples.

[2] = tested on: yeast Saccharomyces cerevisiae X2180-1B; assay: Fungicidal activity / MIC at 50° C. versus 30° C., yeast survival in YEPD broth pH 3.4; conditions: for Importance: rating as pasteurisation adjunct; for MIC: Saccharomyces cerevisiae, read-out: MIC50
Experimental: In the table the minimum inhibitory concentration (MIC) is given for each compound as well as the molecular weight (M.W.), the logPoct and a rating of its importance. […] The logPoct, that is the logarithm of the partition coefficient of the relevant compound in octanol and thus a measure of its […], was determined using […]™ software from the CHEMOFFICE ULRA ENHANCED 2000™ software package (version 5.5) that is commercially available from CambridgeSoft.
(§1) YEPD contained glucose, 20 g/l, peptone 20 g/l and yeast extract 10 g/l. Rows of 30 ml tubes containing 10 ml YEPD, pH 3.4, were equilibrated at the required temperature for 7 minutes in a water bath, before inoculation with 10^4 cells/ml of the yeast Saccharomyces cerevisiae X2180-1B. Tubes were held at temperature for 10 minutes before being cooled rapidly in cold water for 5 minutes. Tubes were then incubated for 48 hours at 25° C. to allow surviving yeasts to grow out, and form discrete colonies.
as §1, §1, §1

[3] = tested on: bacteria, Gluconobacter sp. 222; assay: Bacteria experiments, growth after heat + pasteurisation adjunct; conditions: 0-100 ppm, growth measured visually at 14 days; for effect of heat+pasteurisation adjunct on bacteria: Ready to Drink tea or synthetic soft drink pH 3.4, 2 minutes at temperature; for effect of pasteurisation adjunct at low temperature on growth: Ready to Drink tea or synthetic soft drink pH 3.4, low temperature
Experimental: Rows of 30 ml tubes containing 10 ml soft drink, pH 3.4, were equilibrated at the required temperature for 7 minutes in a water bath, before inoculation with 10^4 cells/ml of the bacteria, Gluconobacter sp. 222. Tubes were held at temperature for 2 minutes before being cooled rapidly in cold water for 5 minutes. Tubes were then incubated for 14 days at 25° C. to allow surviving bacteria to grow out. At 14 days growth was measured visually.

[4] = minimum inhibitory concentration, 50° C.
[5] = minimum inhibitory concentration, 50° C., given as ppm

SMILES: CCCCCCCCCCCCO [Lauric alcohol]
- effect of heat+pasteurisation adjunct on yeast growth [1]: remarkable combined synergistic effect
- effect of pasteurisation adjunct at low temperature on yeast growth [1]: little effect
- MIC50 [2, 4]: 0.1 mM (≈ 18.6 µg/mL)
- MIC50 [2, 5]: 18.6 ppm
- Importance [2]: High (High effects compounds, most preferred, generally showed at least a 5 fold decrease in MIC, minimum inhibitory concentration at 50 °C compared with 30° C.)

SMILES: CCCCCCCCCCOC(C)=O [Decyl acetate]
- effect of heat+pasteurisation adjunct on yeast growth [1]: remarkable combined synergistic effect
- effect of pasteurisation adjunct at low temperature on yeast growth [1]: little effect
- fungicidal activity at 30° C. [2]: no fungicidal activity
- fungicidal activity when heated to 50° C. ([2]; 50° C.): significant fungicidal activity
- MIC [2, 4]: 1000 µM
- Importance [2]: High (High effects compounds, most preferred, generally showed at least a 5 fold decrease in MIC, minimum inhibitory concentration at 50 °C compared with 30° C.)
- effect of heat+pasteurisation adjunct on bacteria [3]: remarkable combined synergistic effect
- effect of pasteurisation adjunct at low temperature on growth [3]: little effect

SMILES: CCCCCCCCCCCC(=O)O [Lauric acid]
- effect of heat+pasteurisation adjunct on yeast growth [1]: remarkable combined synergistic effect
- effect of pasteurisation adjunct at low temperature on yeast growth [1]: little effect
- fungicidal activity at 30° C. [2]: no fungicidal activity
- fungicidal activity when heated to 50° C. ([2]; 50° C.): significant fungicidal activity
- Importance [2]: High (High effects compounds, most preferred, generally showed at least a 5 fold decrease in MIC, minimum inhibitory concentration at 50 °C compared with 30° C.)
- effect of heat+pasteurisation adjunct on bacteria [3]: remarkable combined synergistic effect
- effect of pasteurisation adjunct at low temperature on growth [3]: little effect

SMILES: CCCCCCCCCCCC=O [Lauric aldehyde]
- effect of heat+pasteurisation adjunct on yeast growth [1]: remarkable combined synergistic effect
- effect of pasteurisation adjunct at low temperature on yeast growth [1]: little effect
- MIC50 [2, 4]: 0.2 mM (≈ 36.9 µg/mL)
- MIC50 [2, 5]: 36 ppm
- Importance [2]: High (High effects compounds, most preferred, generally showed at least a 5 fold decrease in MIC, minimum inhibitory concentration at 50 °C compared with 30° C.)

SMILES: CC(=O)CC/C=C(\C)CCC=C(C)C [Geranylacetone]
- effect of heat+pasteurisation adjunct on yeast growth [1]: remarkable combined synergistic effect
- effect of pasteurisation adjunct at low temperature on yeast growth [1]: little effect
- MIC [2, 4]: 500 µM (≈ 97.2 µg/mL)
- Importance [2]: High (High effects compounds, most preferred, generally showed at least a 5 fold decrease in MIC, minimum inhibitory concentration at 50 °C compared with 30° C.)

SMILES: CC(=O)OC/C=C(\C)CCC=C(C)C [Geranyl acetate]
- effect of heat+pasteurisation adjunct on yeast growth [1]: remarkable combined synergistic effect
- effect of pasteurisation adjunct at low temperature on yeast growth [1]: little effect
- MIC [2, 4]: 1000 µM
- Importance [2]: High (High effects compounds, most preferred, generally showed at least a 5 fold decrease in MIC, minimum inhibitory concentration at 50 °C compared with 30° C.)

SMILES: CCCCCCCCCCOC(=O)CC [Decyl propionate]
- MIC [2, 4]: 50000 µM (≈ 10700 µg/mL)
- Importance [2]: High (High effects compounds, most preferred, generally showed at least a 5 fold decrease in MIC, minimum inhibitory concentration at 50 °C compared with 30° C.)

SMILES: CCCCCCCC=CC(=O)OCC [Ethyl 2-decenoate]
- effect of heat+pasteurisation adjunct on yeast growth [1]: remarkable combined synergistic effect
- effect of pasteurisation adjunct at low temperature on yeast growth [1]: little effect
- MIC [2, 4]: 1000 µM (≈ 198 µg/mL)
- Importance [2]: High (High effects compounds, most preferred, generally showed at least a 5 fold decrease in MIC, minimum inhibitory concentration at 50 °C compared with 30° C.)

SMILES: CCCCCCCCCCCC(=O)OCCC(C)C [Isoamyl laurate]
- Importance [2]: Low

SMILES: CCCCCCCCCCCCC=O [Tridecanal]
- MIC [2, 4]: 5000 µM (≈ 992 µg/mL)
- Importance [2]: High (High effects compounds, most preferred, generally showed at least a 5 fold decrease in MIC, minimum inhibitory concentration at 50 °C compared with 30° C.)

SMILES: CCCCCCCCCCCCCCCO [Pentadecanol]
- MIC [2, 4]: 75000 µM (≈ 17100 µg/mL)
- Importance [2]: Low

SMILES: CC(C)C(=O)OCCOc1ccccc1 [2-Phenoxylethyl isobutyrate]
- MIC [2]: 100 µM (≈ 20.8 µg/mL)
- Importance [2]: High (High effects compounds, most preferred, generally showed at least a 5 fold decrease in MIC, minimum inhibitory concentration at 50 °C compared with 30° C.)

SMILES: CC(=O)OC1CC2CCC1(C)C2(C)C (centres unmarked) [Bornyl acetate]
- MIC [2, 4]: 2000 µM
- Importance [2]: Low

SMILES: CCCCCCCCCCCCC(=O)O [Tridecanoic acid]
- MIC [2, 4]: 200 µM (≈ 42.9 µg/mL)
- Importance [2]: High (High effects compounds, most preferred, generally showed at least a 5 fold decrease in MIC, minimum inhibitory concentration at 50 °C compared with 30° C.)
